Results from patent publication US10239887B2, “Positive allosteric modulators of the muscarinic acetylcholine receptor M4” (Vanderbilt University, priority 2016, dated 2019).
Counter-ions that a name gives are not always drawn.

Target: T1, human mAChR M4 (Homo sapiens, UniProt P08173)
T1 sequence (P08173 1-479): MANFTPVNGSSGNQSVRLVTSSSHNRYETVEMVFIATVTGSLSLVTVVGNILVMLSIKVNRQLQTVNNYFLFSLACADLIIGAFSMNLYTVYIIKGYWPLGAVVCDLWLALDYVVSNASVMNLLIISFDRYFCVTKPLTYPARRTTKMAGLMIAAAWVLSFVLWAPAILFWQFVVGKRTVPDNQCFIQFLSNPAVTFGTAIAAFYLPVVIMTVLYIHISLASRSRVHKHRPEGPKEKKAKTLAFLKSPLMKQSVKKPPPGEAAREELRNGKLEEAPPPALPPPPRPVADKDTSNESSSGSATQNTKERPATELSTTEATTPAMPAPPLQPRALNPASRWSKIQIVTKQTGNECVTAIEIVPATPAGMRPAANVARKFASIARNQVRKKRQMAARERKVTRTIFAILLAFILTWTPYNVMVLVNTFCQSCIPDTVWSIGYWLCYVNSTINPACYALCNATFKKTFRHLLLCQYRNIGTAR
Experiment: mAChR M4 cell-based functional assay (calcium flux), human M4
Conditions: for Emax / Emax (%): % ACh maximum at 30 μM

[1] = Human M4 EC50 (nM), Table 10, calcium flux, PAM activity with EC20 acetylcholine
[2] = Human M4 EC50 (nM), Table 11, calcium flux, PAM activity with EC20 acetylcholine
[3] = Human M4 EC50, CHO-K1 hM4-Gqi5 cells, calcium flux, increase in EC20 acetylcholine response

| Structure (SMILES) | EC50 [1] | Emax (Table 10) | also measured |
| --- | --- | --- | --- |
| Cc1nnc2sc3c(NCc4ccc(N5CCN(C)CC5)cc4)ncnc3c2c1C [Compound 111, 3,4-dimethyl-N-[[4-(4-methylpiperazin-1-yl)phenyl]methyl] pyrimido[4′,5′:4,5] thieno[2,3-c] pyridazin-8-amine hydrochloride] | 126 nM | 70.5% |  |
| Cc1nnc2sc3c(N4CC[C@H](Oc5cccnc5)C4)ncnc3c2c1C [Compound 332, 3,4-dimethyl-8-[(3S)-3-(3-pyridyloxy)pyrrolidin-1-yl] pyrimido[4′,5′:4,5]thieno [2,3-c]pyridazine] |  |  | EC50 [2]: 129 nM; Emax (Table 11): 80.5% |
| Cc1cc(C)c2c(n1)sc1c(N3CC4CC4C3)ncnc12 (centres unmarked) [Compound 196, 4-(3-azabicyclo [3.1.0]hexan-3-yl)-7,9-dimethyl-pyrido [3′,2′:4,5]thieno[3,2-d] pyrimidine] | 453 nM | 74.5% |  |
| Cc1nnc2sc3c(NCc4ccc(C(=O)N5CC6CC6C5)cc4)ncnc3c2c1C (centres unmarked) [Compound 126, 3-azabicyclo[3.1.0] hexan-3-yl-[4-[[(3,4-dimethylpyrimido [4′,5′:4,5]thieno[2,3-c]pyridazin-8-yl)amino]methyl]phenyl] methanone] | 481 nM | 84.2% |  |
| Cc1c(Cl)cnc2sc3c(N4CCCC4)ncnc3c12 [Compound 215, 8-chloro-9-methyl-4-pyrrolidin-1-yl-pyrido [3′,2′:4,5]thieno[3,2-d] pyrimidine] | 5980 nM | 45% |  |
| Cc1nnc2sc3c(NCc4ccc(C(=O)N5CC[C@H](F)C5)cc4)ncnc3c2c1C [Compound 128, [4-[[(3,4-dimethylpyrimido [4′,5′:4,5]thieno[2,3-c]pyridazin-8-yl)amino]methyl]phenyl]-[(3S)-3-fluoropyrrolidin-1-yl]methanone] | 529 nM | 92% |  |
| Cc1cc(C(C)(C)O)ccc1CNc1ncnc2c1sc1nnc(C)c(C)c12 [Compound 335, 2-[4-[[(3,4-dimethylpyrimido [4′,5′:4,5]thieno[2,3-c]pyridazin-8-yl)amino]methyl]-3-methyl-phenyl]propan-2-ol] |  |  | Emax (Table 11): 71.1% |
| Cc1nnc2sc3c(N4CC[C@H](Oc5ccc(C(F)(F)F)cn5)C4)ncnc3c2c1C [Compound 360, 3,4-dimethyl-8-[(3S)-3-[[5-(trifluoromethyl)-2-pyridyl]oxy]pyrrolidin-1-yl] pyrimido[4′,5′:4,5]thieno [2,3-c]pyridazine dihydrochloride] |  |  | EC50 [2]: 333 nM; Emax (Table 11): 56% |
| Cc1nnc2sc3c(NC4CN(C(=O)OC(C)(C)C)C4)ncnc3c2c1C [Compound 87, tert-butyl 3-[(3,4-dimethylpyrimido [4′,5′:4,5]thieno[2,3-c]pyridazin-8-yl)amino] azetidine-1-carboxylate] | 139 nM | 70.5% |  |
| Cc1nnc2oc3c(NCc4ccc(C(C)(C)O)nc4)ncnc3c2c1C [Compound 74, 2-[5-[[(3,4-dimethylpyrimido [4′,5′:4,5]furo[2,3-c]pyridazin-8-yl)amino]methyl]-2-pyridyl]propan-2-ol] |  |  | Emax (Human M4): 59.5%; EC50 [3]: 9160 nM |
| Cc1nnc2sc3c(N4CC(Oc5ccc(C#N)nc5)C4)ncnc3c2c1C [Compound 355, 5-[1-(3,4-dimethylpyrimido[4′,5′:4,5]thieno[2,3-c]pyridazin-8-yl)azetidin-3-yl]oxypyridine-2-carbonitrile dihydrochloride] |  |  | EC50 [2]: 1310 nM; Emax (Table 11): 49.2% |
| Cc1nnc2oc3c(N4CC5(COC5)C4)ncnc3c2c1C [Compound 307, 3,4-dimethyl-8-(2-oxa-6-azaspiro[3.3]heptan-6-yl)pyrimido[4′,5′:4,5] furo[2,3-c]pyridazine] | 4840 nM | 46.1% |  |
| Cc1cc(C)c2c(n1)oc1c(NC3CCC3)ncnc12 [Compound 293, N-cyclobutyl-7,9-dimethyl-pyrido[3′,2′:4,5]furo[3,2-d]pyrimidin-4-amine hydrochloride] | 1590 nM |  | Emax (%) (Table 10): 44.18% |
| Cc1nnc2sc3c(NCc4ccc(F)c(C(=O)NC(C)C(C)(C)CO)c4)ncnc3c2c1C (centres unmarked) [Compound 185, 5-[[(3,4-dimethylpyrimido [4′,5′:4,5]thieno[2,3-c]pyridazin-8-yl)amino]methyl]-2-fluoro-N-(3-hydroxy-1,2,2-trimethyl-propyl)benzamide] | 794 nM | 94.2% |  |
| Cc1c(Cl)nnc2sc3c(N4CCCC4)ncnc3c12 [Compound 209, 3-chloro-4-methyl-8-pyrrolidin-1-yl-pyrimido[4′,5′:4,5] thieno[2,3-c]pyridazine] | 55.5 nM | 89.9% |  |
| COc1cc(CNc2ncnc3c2sc2ncc(Cl)c(C)c23)cc(OC)c1 [Compound 230, 8-chloro-N-[(3,5-dimethoxyphenyl)methyl]-9-methyl-pyrido [3′,2′:4,5]thieno[3,2-d] pyrimidin-4-amine] |  | 37.3% | EC50 (Human M4 EC50 (nM), Table 10, unit μM (bounds)): > 10000 nM |

| Structure (SMILES) | EC50 [1] | Emax (Table 10) | also measured |
| --- | --- | --- | --- |
| Cc1nnc2sc3c(NCc4ccc(C(C)(O)C(F)(F)F)cc4)ncnc3c2c1C (centres unmarked) [Compound 113, 2-[4-[[(3,4-dimethylpyrimido [4′,5′:4,5]thieno[2,3-c]pyridazin-8-yl)amino]methyl]phenyl]-1,1,1-trifluoro-propan-2-ol] |  | 73.8% |  |
| Cc1c(Cl)cnc2sc3c(N4CCC4)ncnc3c12 [Compound 221, 4-(azetidin-1-yl)-8-chloro-9-methyl-pyrido[3′,2′:4,5] thieno[3,2-d] pyrimidine] | 867 nM | 40.6% |  |
| Cc1cc(C)c2c(n1)oc1c(NC3CC3)ncnc12 [Compound 295, N-cyclopropyl-7,9-dimethyl-pyrido[3′,2′:4,5]furo[3,2-d]pyrimidin-4-amine hydrochloride] |  |  | Emax (%) (Table 10): 63.93% |
| Cc1nnc2sc3c(NCc4ccc(C5COC5)cc4)ncnc3c2c1C [Compound 374, 3,4-dimethyl-N-[[4-(oxetan-3-yl)phenyl]methyl] pyrimido[4′,5′:4,5]thieno [2,3-c]pyridazin-8-amine] |  |  | EC50 [2]: 45.2 nM; Emax (Table 11): 101% |
| Cc1nnc2sc3c(NCc4ccc(F)c(C(=O)NC5CC(F)C5)c4)ncnc3c2c1C (centres unmarked) [Compound 183, 5-[[(3,4-dimethylpyrimido [4′,5′:4,5]thieno[2,3-c]pyridazin-8-yl)amino]methyl]-2-fluoro-N-(3-fluorocyclobutyl) benzamide] | 505 nM | 99.7% |  |
| Cc1nnc2sc3c(NCc4ccc(C(=O)N5CCCC5)cc4)ncnc3c2c1C [Compound 122, [4-[[(3,4-dimethylpyrimido [4′,5′:4,5]thieno[2,3-c]pyridazin-8-yl)amino]methyl]phenyl]-pyrrolidin-1-yl-methanone] | 482 nM | 83.7% |  |
| Cc1cc(C)c2c(n1)oc1c(N3CC4(COC4)C3)ncnc12 [Compound 56, 7,9-dimethyl-4-(2-oxa-6-azaspiro[3.3]heptan-6-yl)pyrido[3′,2′:4,5]furo[3,2-d]pyrimidine] |  |  | Emax (Human M4): 37.7%; EC50 [3]: 3370 nM |
| Cc1nc2sc3c(N4CC(F)(F)C4)ncnc3c2c(C)c1Cl [Compound 261, 8-chloro-4-(3,3-difluoroazetidin-1-yl)-7,9-dimethyl-pyrido [3′,2′:4,5]thieno[3,2-d] pyrimidine hydrochloride] | 3920 nM | 76.2% |  |
| Cc1nnc2sc3c(NC4CC5(C4)CN(c4ncc(F)cc4Cl)C5)ncnc3c2c1C [Compound 163, N-[2-(3-chloro-5-fluoro-2-pyridyl)-2-azaspiro [3.3]heptan-6-yl]-3,4-dimethyl-pyrimido [4′,5′:4,5]thieno[2,3-c] pyridazin-8-amine] | 1440 nM | 42.9% |  |
| Cc1nnc2sc3c(N4CC(=O)C4)ncnc3c2c1C [Compound 36, 1-(3,4-dimethylpyrimido [4′,5′:4,5]thieno[2,3-c]pyridazin-8-yl) azetidin-3-one] |  |  | Emax (Human M4): 64%; EC50 [3]: 1000 nM |
| COCC1CN(c2ncnc3c2sc2nc(C)cc(C)c23)C1 [Compound 194, 4-[3-(methoxymethyl)azetidin-1-yl]-7.9-dimethyl-pyrido [3′,2′:4,5]thieno[3,2-d] pyrimidine] | 762 nM | 88.7% |  |
| Cc1cc(C)c2c(n1)oc1c(N3CC4(COC4)C3)ncnc12 [Compound 296, 7,9-dimethyl-4-(2-oxa-6-azaspiro[3.3]heptan-6-yl)pyrido[3′,2′:4,5]furo[3,2-d]pyrimidine] | 3370 nM | 37.7% |  |
| Cc1nnc2sc3c(N4CC[C@H](Oc5ccnc(Cl)c5)C4)ncnc3c2c1C [Compound 329, 8-[(3S)-3-[(2-chloro-4-pyridyl)oxy]pyrrolidin-1-yl]-3,4-dimethyl-pyrimido [4′,5′:4,5]thieno[2,3-c] pyridazine] |  |  | EC50 [2]: 107 nM; Emax (Table 11): 76.6% |
| Cc1nnc2sc3c(NC4CC(O)(c5ccc(F)cc5)C4)ncnc3c2c1C (centres unmarked) [Compound 339, 3-[(3,4-dimethylpyrimido [4′,5′:4,5]thieno[2,3-c]pyridazin-8-yl)amino]-1-(4-fluorophenyl) cyclobutanol] |  |  | EC50 [2]: 4900 nM; Emax (Table 11): 50.9% |
| Cc1nnc2sc3c(NCc4cccc(-n5cccn5)c4)ncnc3c2c1C [Compound 328, 3,4-dimethyl-N-[(3-pyrazol-1-ylphenyl)methyl]pyrimido [4′,5′:4,5]thieno[2,3-c] pyridazin-8-amine] |  |  | EC50 [2]: 1970 nM; Emax (Table 11): 63.6% |
